Laboratory results reported in patent publication US20230159445A1, “STAT INHIBITORY COMPOUNDS AND COMPOSITIONS” (JANPIX LIMITED, priority 2020, published 2023).

Key:
MV4-11 cells = test: MV4-11 Cell Cytotoxicity Assay (CellTiter-Blue, 72 h); format: cell-based, human; settings: Homo sapiens, MV4-11; MV-4-11 cells
In short: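 Cells seeded 24 h before treatment, then exposed 72 h at 37° C, 5% CO2 to inhibitors in triplicate, top concentration 50 μM with 1:2 serial dilutions (0.5% DMSO vehicle). Viability read by CellTiter-Blue fluorescence at 560/590 nm after 1 h.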

glutathione (GSH) = test: Reactivity Profiling with Glutathione (GSH), half-life by HPLC; settings: 5 mM glutathione (GSH) in IMDM with 10% FBS

Work on `CC(C)(C)c1cc(CN(C(=O)CN(Cc2ccccc2C(F)(F)F)S(=O)(=O)c2c(F)c(F)c(F)c(F)c2F)c2ccc(C(=O)O)c(O)c2)cc(C2CC2)c1` [Compound 1048, 4-(N-(3-(tert-butyl)-5-cyclopropylbenzyl)-2-(N-(2-(trifluoromethyl)benzyl)-(2,3,4,5,6-pentafluoro-phenyl)sulfonamido)acetamido)-2-hydroxybenzoic acid] yielded an IC50 (MV4-11 cells) of 1000 to 3160 nM and a half-life at 25 μM (glutathione (GSH)) of 9.23 to 1670 h.

With `CC(C)(C)c1cc(CN(C(=O)CN(Cc2ccc(Cl)cc2)S(=O)(=O)c2c(F)c(F)c(F)c(F)c2F)c2ccc(C(=O)O)cc2OC(F)(F)F)cc(C2CC2)c1` [Compound 1050, 4-(N-(3-(tert-butyl)-5-cyclopropylbenzyl)-2-(N-(4-chlorobenzyl)-(2,3,4,5,6-pentafluorophenyl)sulfon-amido)acetamido)-3-(trifluoromethoxy) benzoic acid] the IC50 (MV4-11 cells) was 1000 to 3160 nM and the half-life at 25 μM (glutathione (GSH)) was 9.23 to 1670 h.

In the case of `CC(C)(C)c1cc(CN(C(=O)CCN(Cc2ccc(Cl)cc2)S(=O)(=O)c2c(F)c(F)c(F)c(F)c2F)c2ccc(C(=O)O)c(O)c2)cc(C2CC2)c1` [Compound 1052, 4-(N-(3-(tert-butyl)-5-cyclopropylbenzyl)-3-(N-(4-chlorobenzyl)-(2,3,4,5,6-pentafluorophenyl)sulfon-amido)propanamido)-2-hydroxybenzoic acid], the IC50 (MV4-11 cells) is reported as 3160 to 100000 nM and the half-life at 25 μM (glutathione (GSH)) is reported as 2.37 to 4.12 h.

In the case of `O=C(O)c1ccc(N(Cc2cc(Br)cc(C3CC3)c2)C(=O)CN(Cc2ccc(Cl)cc2)S(=O)(=O)c2c(F)c(F)c(F)c(F)c2F)cc1O` [Compound 1054, 4-(N-(3-bromo-5-cyclopropylbenzyl)-2-(N-(4-chlorobenzyl)-(2,3,4,5,6-pentafluorophenyl)sulfon-amido)acetamido)-2-hydroxybenzoic acid], the IC50 (MV4-11 cells) is reported as 3160 to 100000 nM and the half-life at 25 μM (glutathione (GSH)) is reported as 0.00167 to 2.37 h.

`CC(C)(C)c1cc(CN(C(=O)CN(Cc2ccc(Cl)cc2)S(=O)(=O)c2c(F)c(F)c(F)c(F)c2F)c2ccc(S(N)(=O)=O)cc2)cc(C2CC2)c1` [Compound 1055, N-(3-(tert-butyl)-5-cyclopropylbenzyl)-2-(N-(4-chlorobenzyl)-(2,3,4,5,6-pentafluorophenyl)sulfon-amido)-N-(4-sulfamoylphenyl) acetamide] gave an IC50 (MV4-11 cells) of 1000 to 3160 nM and a half-life at 25 μM (glutathione (GSH)) of 9.23 to 1670 h.

`Cc1cc(C(=O)O)ccc1N(Cc1cc(C2CC2)cc(C(C)(C)C)c1)C(=O)CN(Cc1ccc(Cl)cc1)S(=O)(=O)c1c(F)c(F)c(F)c(F)c1F` [Compound 1056, 4-(N-(3-(tert-butyl)-5-cyclopropylbenzyl)-2-(N-(4-chlorobenzyl)-(2,3,4,5,6-pentafluorophenyl)sulfon-amido)acetamido)-3-methylbenzoic acid] was tested, and the IC50 (MV4-11 cells) was 316 to 1000 nM and the half-life at 25 μM (glutathione (GSH)) was 4.12 to 9.23 h.

With `CC(C)(C)c1cc(CN(C(=O)CN(Cc2ccccc2F)S(=O)(=O)c2c(F)c(F)c(F)c(F)c2F)c2ccc(C(=O)O)cc2N2CCC2)cc(C2CC2)c1` [Compound 1058, 3-(azetidin-1-yl)-4-(N-(3-(tert-butyl)-5-cyclopropylbenzyl)-2-(N-(2-fluorobenzyl)-(2,3,4,5,6-pentafluoro-phenyl)sulfonamido)acetamido)benzoic acid] the IC50 (MV4-11 cells) was 316 to 1000 nM and the half-life at 25 μM (glutathione (GSH)) was 9.23 to 1670 h.

`CN(C)c1cc(C(=O)O)c(F)cc1N(Cc1cc(C2CC2)cc(C(C)(C)C)c1)C(=O)CN(Cc1ccccc1F)S(=O)(=O)c1c(F)c(F)c(F)c(F)c1F` [Compound 1060, 4-(N-(3-(tert-butyl)-5-cyclopropylbenzyl)-2-(N-(2-fluorobenzyl)-(2,3,4,5,6-pentafluoro-phenyl)sulfonamido)acetamido)-5-(dimethylamino)-2-fluorobenzoic acid] gave an IC50 (MV4-11 cells) of 0.01 to 316 nM and a half-life at 25 μM (glutathione (GSH)) of 4.12 to 9.23 h.

With `CN(c1cc(C(=O)O)ccc1N(Cc1cc(C2CC2)cc(C(C)(C)C)c1)C(=O)CN(Cc1ccccc1F)S(=O)(=O)c1c(F)c(F)c(F)c(F)c1F)S(C)(=O)=O` [Compound 1064, 4-(N-(3-(tert-butyl)-5-cyclopropylbenzyl)-2-(N-(2-fluorobenzyl)-(2,3,4,5,6-pentafluoro-phenyl)sulfonamido)acetamido)-3-(N-methylmethylsulfonamido) benzoic acid] the IC50 (MV4-11 cells) was 1000 to 3160 nM and the half-life at 25 μM (glutathione (GSH)) was 4.12 to 9.23 h.

Compound `CC(C)(C)c1cc(CN(C(=O)CN(Cc2ccccc2F)S(=O)(=O)c2c(F)c(F)c(F)c(F)c2F)c2ccc(C(=O)O)cc2F)cc(C2CC2)c1` [Compound 1065, 4-(N-(3-(tert-butyl)-5-cyclopropylbenzyl)-2-(N-(2-fluorobenzyl)-(2,3,4,5,6-pentafluoro-phenyl)sulfonamido)acetamido)-3-fluorobenzoic acid] has an IC50 (MV4-11 cells) of 316 to 1000 nM and a half-life at 25 μM (glutathione (GSH)) of 0.00167 to 2.37 h.

With `CC(C)(C)c1cc(CN(C(=O)CN(Cc2ccccc2F)S(=O)(=O)c2c(F)c(F)c(F)c(F)c2F)c2ccc(C(=O)O)c(N)c2)cc(C2CC2)c1` [Compound 1070, 2-amino-4-(N-(3-(tert-butyl)-5-cyclopropylbenzyl)-2-(N-(2-fluorobenzyl)-(2,3,4,5,6-pentafluoro-phenyl)sulfonamido)acetamido)benzoic acid] the IC50 (MV4-11 cells) was 316 to 1000 nM and the half-life at 25 μM (glutathione (GSH)) was 0.00167 to 2.37 h.

`CN(C)c1cc(N(Cc2cc(C3CC3)cc(C(C)(C)C)c2)C(=O)CN(Cc2ccccc2F)S(=O)(=O)c2c(F)c(F)c(F)c(F)c2F)ccc1C(=O)O` [Compound 1071, 4-(N-(3-(tert-butyl)-5-cyclopropylbenzyl)-2-(N-(2-fluorobenzyl)-(2,3,4,5,6-pentafluoro-phenyl)sulfonamido)acetamido)-2-(dimethylamino) benzoic acid] gave an IC50 (MV4-11 cells) of 316 to 1000 nM and a half-life at 25 μM (glutathione (GSH)) of 2.37 to 4.12 h.

Work on `Cc1cc(C(=O)O)cc(C)c1N(Cc1cc(C2CC2)cc(C(C)(C)C)c1)C(=O)CN(Cc1ccccc1F)S(=O)(=O)c1c(F)c(F)c(F)c(F)c1F` [Compound 1072, 4-(N-(3-(tert-butyl)-5-cyclopropylbenzyl)-2-(N-(2-fluorobenzyl)-(2,3,4,5,6-pentafluoro-phenyl)sulfonamido)acetamido)-3,5-dimethylbenzoic acid] yielded an IC50 (MV4-11 cells) of 316 to 1000 nM and a half-life at 25 μM (glutathione (GSH)) of 4.12 to 9.23 h.

`COc1cc(C(=O)O)ccc1N(Cc1cc(C2CC2)cc(C(C)(C)C)c1)C(=O)C[C@@H](C)N(Cc1ccccc1F)S(=O)(=O)c1c(F)c(F)c(F)c(F)c1F` [Compound 1073] showed an IC50 (MV4-11 cells) of 316 to 1000 nM and a half-life at 25 μM (glutathione (GSH)) of 0.00167 to 2.37 h.

Compound `COc1cc(C(=O)O)ccc1N(Cc1cc(C2CC2)cc(C(C)(C)C)c1)C(=O)CN(Cc1ccc(F)cc1F)S(=O)(=O)c1c(F)c(F)c(F)c(F)c1F` [Compound 1076, 4-(N-(3-(tert-butyl)-5-cyclopropylbenzyl)-2-(N-(2,4-difluorobenzyl)-(2,3,4,5,6-pentafluorophenyl)sulfon-amido)acetamido)-3-methoxybenzoic acid] has an IC50 (MV4-11 cells) of 316 to 1000 nM and a half-life at 25 μM (glutathione (GSH)) of 2.37 to 4.12 h.

`COc1cc(F)ccc1CN(CC(=O)N(Cc1cc(C2CC2)cc(C(C)(C)C)c1)c1ccc(C(=O)O)cc1OC)S(=O)(=O)c1c(F)c(F)c(F)c(F)c1F` [Compound 1077, 4-(N-(3-(tert-butyl)-5-cyclopropylbenzyl)-2-(N-(4-fluoro-2-methoxybenzyl)-(2,3,4,5,6-pentafluoro-phenyl)sulfonamido)acetamido)-3-methoxybenzoic acid] gave an IC50 (MV4-11 cells) of 316 to 1000 nM and a half-life at 25 μM (glutathione (GSH)) of 2.37 to 4.12 h.

With `COc1cc(C(=O)O)ccc1N(Cc1cc(C2CC2)cc(C(C)(C)C)c1)C(=O)CN(Cc1c(Cl)cc(F)cc1Cl)S(=O)(=O)c1c(F)c(F)c(F)c(F)c1F` [Compound 1079, 4-(N-(3-(tert-butyl)-5-cyclopropylbenzyl)-2-(N-(2,6-dichloro-4-fluorobenzyl)-(2,3,4,5,6-pentafluorophenyl)sulfon-amido)acetamido)-3-methoxybenzoic acid] the IC50 (MV4-11 cells) was 0.01 to 316 nM and the half-life at 25 μM (glutathione (GSH)) was 4.12 to 9.23 h.

For `COc1cc(C(=O)O)ccc1N(Cc1cc(C2CC2)cc(C(C)(C)C)c1)C(=O)CN(Cc1cccc(F)c1F)S(=O)(=O)c1c(F)c(F)c(F)c(F)c1F` [Compound 1080, 4-(N-(3-(tert-butyl)-5-cyclopropylbenzyl)-2-(N-(2,3-difluorobenzyl)-(2,3,4,5,6-pentafluorophenyl)sulfonamido)acetamido)-3-methoxybenzoic acid], the IC50 (MV4-11 cells) was 0.01 to 316 nM and the half-life at 25 μM (glutathione (GSH)) was 2.37 to 4.12 h.

`COc1cc(C(=O)O)ccc1N(Cc1cc(C2CC2)cc(C(C)(C)C)c1)C(=O)CN(Cc1c(F)c(F)cc(F)c1F)S(=O)(=O)c1c(F)c(F)c(F)c(F)c1F` [Compound 1082, 4-(N-(3-(tert-butyl)-5-cyclopropylbenzyl)-2-(N-(2,3,5,6-tetrafluorobenzyl)-(2,3,4,5,6-pentafluoro-phenyl)sulfonamido)acetamido)-3-methoxybenzoic acid] gave an IC50 (MV4-11 cells) of 0.01 to 316 nM and a half-life at 25 μM (glutathione (GSH)) of 2.37 to 4.12 h.

`COc1cc(C(=O)O)ccc1N(Cc1cc(C2CC2)cc(C(C)(C)C)c1)C(=O)CN(Cc1ccc(F)c(F)c1F)S(=O)(=O)c1c(F)c(F)c(F)c(F)c1F` [Compound 1083, 4-(N-(3-(tert-butyl)-5-cyclopropylbenzyl)-2-(N-(2,3,4-trifluorobenzyl)-(2,3,4,5,6-pentafluoro-phenyl)sulfonamido)acetamido)-3-methoxybenzoic acid] was tested, and the IC50 (MV4-11 cells) was 0.01 to 316 nM and the half-life at 25 μM (glutathione (GSH)) was 4.12 to 9.23 h.

In the case of `COc1cc(C(=O)O)ccc1N(Cc1cc(C2CC2)cc(C(C)(C)C)c1)C(=O)CN(Cc1ncccc1F)S(=O)(=O)c1c(F)c(F)c(F)c(F)c1F` [Compound 1084, 4-(N-(3-(tert-butyl)-5-cyclopropylbenzyl)-2-(N-((3-fluoropyridin-2-yl)methyl)-(2,3,4,5,6-pentafluoro-phenyl)sulfonamido)acetamido)-3-methoxybenzoic acid], the IC50 (MV4-11 cells) is reported as 316 to 1000 nM and the half-life at 25 μM (glutathione (GSH)) is reported as 0.00167 to 2.37 h.

`COc1cc(C(=O)O)ccc1N(Cc1cc(C2CC2)cc(C(C)(C)C)c1)C(=O)CN(Cc1ccc(F)cn1)S(=O)(=O)c1c(F)c(F)c(F)c(F)c1F` [Compound 1085, 4-(N-(3-(tert-butyl)-5-cyclopropylbenzyl)-2-(N-((5-fluoropyridin-2-yl)methyl)-(2,3,4,5,6-pentafluoro-phenyl)sulfonamido)acetamido)-3-methoxybenzoic acid] was tested, and the IC50 (MV4-11 cells) was 316 to 1000 nM and the half-life at 25 μM (glutathione (GSH)) was 0.00167 to 2.37 h.
